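Test compounds were applied to cells in 96-well plates for 48 hours at 5 doses. GI50: concentration for 50% inhibition of growth.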 Active and inactive are the calls of the source. Cut-off read from the data, not from the text of the source: active = GI50 up to about 1.1 µM and inactive = higher.
What was measured:
Assay in all cases: NCI-60 cell line screen, 48 h
U-251 = test system: U-251
HOP-62 = test system: HOP-62
K562 = test system: K562
SK-MEL-2 = test system: SK-MEL-2
NCI/ADR-RES = test system: NCI/ADR-RES
PC-3 = test system: PC-3
OVCAR-4 = test system: OVCAR-4
RXF 393 = test system: RXF 393
OVCAR-3 = test system: OVCAR-3
COLO 205 = test system: COLO 205
CCRF-CEM = test system: CCRF-CEM
NCI-H460 = test system: NCI-H460
UACC-62 = test system: UACC-62
OVCAR-8 = test system: OVCAR-8
OVCAR-5 = test system: OVCAR-5
HCT-116 = test system: HCT-116
SK-MEL-28 = test system: SK-MEL-28
NCI-H522 = test system: NCI-H522
DU-145 = test system: DU-145
TK-10 = test system: TK-10
RPMI-8226 = test system: RPMI-8226
BT-549 = test system: BT-549
A549 = test system: A549
NCI-H226 = test system: NCI-H226
SN12C = test system: SN12C
MDA-MB-231 = test system: MDA-MB-231
Hs-578T = test system: Hs-578T
SF-268 = test system: SF-268
SF-539 = test system: SF-539
MDA-N = test system: MDA-N
T47D = test system: T47D
HT-29 = test system: HT-29
SNB-19 = test system: SNB-19
786-0 = test system: 786-0
SNB-75 = test system: SNB-75
HOP-92 = test system: HOP-92
UO-31 = test system: UO-31
MCF7 = test system: MCF7
MOLT-4 = test system: MOLT-4
HCC 2998 = test system: HCC 2998
A498 = test system: A498
NCI-H23 = test system: NCI-H23
EKVX = test system: EKVX
SK-OV-3 = test system: SK-OV-3
M14 = test system: M14
ACHN = test system: ACHN
SK-MEL-5 = test system: SK-MEL-5
SF-295 = test system: SF-295
SW-620 = test system: SW-620
Malme-3M = test system: Malme-3M
MDA-MB-435 = test system: MDA-MB-435
HCT-15 = test system: HCT-15
IGROV-1 = test system: IGROV-1
HL-60 = test system: HL-60
UACC-257 = test system: UACC-257
LOX IMVI = test system: LOX IMVI
CAKI-1 = test system: CAKI-1
KM12 = test system: KM12

Structure (SMILES): C=CC(Cl)(CBr)CCC(Br)C(C)(C)Cl (stereo not given)
- GI50 (U-251): 14.4 µM (inactive)
- GI50 (HOP-62): 16.3 µM (inactive)
- GI50 (K562): 14.9 µM (inactive)
- GI50 (SK-MEL-2): 19.2 µM (inactive)
- GI50 (NCI/ADR-RES): 22.1 µM (inactive)
- GI50 (PC-3): 17.5 µM (inactive)
- GI50 (OVCAR-4): 16.6 µM (inactive)
- GI50 (RXF 393): 17.4 µM (inactive)
- GI50 (OVCAR-3): 17.5 µM (inactive)
- GI50 (COLO 205): 15.9 µM (inactive)
- GI50 (CCRF-CEM): 1.89 µM (inactive)
- GI50 (NCI-H460): 14.8 µM (inactive)
- GI50 (UACC-62): 12.7 µM (inactive)
- GI50 (OVCAR-8): 15.6 µM (inactive)
- GI50 (OVCAR-5): 17.3 µM (inactive)
- GI50 (HCT-116): 12.8 µM (inactive)
- GI50 (SK-MEL-28): 17.3 µM (inactive)
- GI50 (NCI-H522): 10.6 µM (inactive)
- GI50 (DU-145): 19.7 µM (inactive)
- GI50 (TK-10): 23.2 µM (inactive)
- GI50 (RPMI-8226): 7.38 µM (inactive)
- GI50 (BT-549): 21.4 µM (inactive)
- GI50 (A549): 31.3 µM (inactive)
- GI50 (NCI-H226): > 100 µM (inactive)
- GI50 (SN12C): 21.3 µM (inactive)
- GI50 (MDA-MB-231): 14.5 µM (inactive)
- GI50 (Hs-578T): 35.4 µM (inactive)
- GI50 (SF-268): 20.8 µM (inactive)
- GI50 (SF-539): 16.9 µM (inactive)
- GI50 (MDA-N): 17.7 µM (inactive)
- GI50 (T47D): 16.6 µM (inactive)
- GI50 (HT-29): 15.3 µM (inactive)
- GI50 (SNB-19): 16.7 µM (inactive)
- GI50 (786-0): 11.7 µM (inactive)
- GI50 (SNB-75): 19.2 µM (inactive)
- GI50 (HOP-92): 19.5 µM (inactive)
- GI50 (UO-31): 15.4 µM (inactive)
- GI50 (MCF7): 6.92 µM (inactive)
- GI50 (MOLT-4): 3.23 µM (inactive)
- GI50 (HCC 2998): 14.8 µM (inactive)
- GI50 (A498): 14.1 µM (inactive)
- GI50 (NCI-H23): 17 µM (inactive)
- GI50 (EKVX): 19.8 µM (inactive)
- GI50 (SK-OV-3): 41.9 µM (inactive)
- GI50 (M14): 13.6 µM (inactive)
- GI50 (ACHN): 16.5 µM (inactive)
- GI50 (SK-MEL-5): 13.1 µM (inactive)
- GI50 (SF-295): 14.8 µM (inactive)
- GI50 (SW-620): 12.6 µM (inactive)
- GI50 (Malme-3M): 18.7 µM (inactive)
- GI50 (MDA-MB-435): 14.2 µM (inactive)
- GI50 (HCT-15): 18.3 µM
- GI50 (IGROV-1): 13 µM (inactive)
- GI50 (HL-60): 4.05 µM (inactive)
- GI50 (UACC-257): 14.3 µM (inactive)

Structure (SMILES): C/C1=C/C2=CC(C)C[C@@H]2C(=O)[C@]2(C)C(=O)CC(C)(C)[C@H]2CC1=O (stereo not given in full)
- GI50 (U-251): > 50 µM (inactive)
- GI50 (K562): 32.3 µM (inactive)
- GI50 (SK-MEL-2): > 50 µM (inactive)
- GI50 (NCI/ADR-RES): > 50 µM (inactive)
- GI50 (PC-3): > 50 µM (inactive)
- GI50 (OVCAR-4): > 50 µM (inactive)
- GI50 (OVCAR-3): > 50 µM (inactive)
- GI50 (COLO 205): > 50 µM (inactive)
- GI50 (CCRF-CEM): 15 µM (inactive)
- GI50 (LOX IMVI): > 50 µM (inactive)
- GI50 (NCI-H460): > 50 µM (inactive)
- GI50 (UACC-62): > 50 µM (inactive)
- GI50 (OVCAR-8): > 50 µM (inactive)
- GI50 (OVCAR-5): > 50 µM (inactive)
- GI50 (HCT-116): > 50 µM (inactive)
- GI50 (NCI-H522): > 50 µM (inactive)
- GI50 (DU-145): > 50 µM (inactive)
- GI50 (TK-10): > 50 µM (inactive)
- GI50 (RPMI-8226): 34.8 µM (inactive)
- GI50 (BT-549): > 50 µM (inactive)
- GI50 (A549): > 50 µM (inactive)
- GI50 (NCI-H226): > 50 µM (inactive)
- GI50 (SN12C): > 50 µM (inactive)
- GI50 (MDA-MB-231): > 50 µM (inactive)
- GI50 (Hs-578T): > 50 µM (inactive)
- GI50 (SF-268): > 50 µM (inactive)
- GI50 (SF-539): > 50 µM (inactive)
- GI50 (MDA-N): > 50 µM (inactive)
- GI50 (T47D): > 50 µM (inactive)
- GI50 (HT-29): > 50 µM (inactive)
- GI50 (SNB-19): > 50 µM (inactive)
- GI50 (786-0): > 50 µM (inactive)
- GI50 (SNB-75): > 50 µM (inactive)
- GI50 (HOP-92): > 50 µM (inactive)
- GI50 (UO-31): > 50 µM (inactive)
- GI50 (MCF7): > 50 µM (inactive)
- GI50 (MOLT-4): > 50 µM (inactive)
- GI50 (HCC 2998): > 50 µM (inactive)
- GI50 (A498): > 50 µM (inactive)
- GI50 (CAKI-1): > 50 µM (inactive)
- GI50 (NCI-H23): > 50 µM (inactive)
- GI50 (EKVX): > 50 µM (inactive)
- GI50 (SK-OV-3): > 50 µM (inactive)
- GI50 (M14): > 50 µM (inactive)
- GI50 (ACHN): > 50 µM (inactive)
- GI50 (SK-MEL-5): > 50 µM (inactive)
- GI50 (SF-295): > 50 µM (inactive)
- GI50 (SW-620): > 50 µM (inactive)
- GI50 (Malme-3M): > 50 µM (inactive)
- GI50 (MDA-MB-435): > 50 µM (inactive)
- GI50 (KM12): > 50 µM (inactive)
- GI50 (HCT-15): > 50 µM
- GI50 (IGROV-1): > 50 µM (inactive)
- GI50 (HL-60): 9.73 µM (inactive)
- GI50 (UACC-257): > 50 µM (inactive)
